Results published in ChEMBL document CHEMBL1201862, “PubChem BioAssay data set” (2004).
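Protocol summary: plate cells (96-well), add compound at 5 concentrations, incubate 48 h, interpolate endpoints linearly. At the GI50, growth is halved.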 Activity calls are given as the source filed them. No stated cut-off is given here; in the data, active = GI50 up to about 1.1 µM and inactive = higher.

Key:
Test in all cases: NCI-60 cell line screen, 48 h
NCI/ADR-RES = system: NCI/ADR-RES
LOX IMVI = system: LOX IMVI
SF-295 = system: SF-295
U-251 = system: U-251
SK-MEL-28 = system: SK-MEL-28
OVCAR-5 = system: OVCAR-5
OVCAR-8 = system: OVCAR-8
HCT-15 = system: HCT-15
HL-60 = system: HL-60
T47D = system: T47D
DU-145 = system: DU-145
TK-10 = system: TK-10
NCI-H23 = system: NCI-H23
MCF7 = system: MCF7
M14 = system: M14
MDA-MB-231 = system: MDA-MB-231
SNB-75 = system: SNB-75
OVCAR-3 = system: OVCAR-3
SW-620 = system: SW-620
SR = system: SR
MDA-N = system: MDA-N
BT-549 = system: BT-549
PC-3 = system: PC-3
MOLT-4 = system: MOLT-4
KM12 = system: KM12
COLO 205 = system: COLO 205
SNB-19 = system: SNB-19
RPMI-8226 = system: RPMI-8226
NCI-H226 = system: NCI-H226
UACC-62 = system: UACC-62
SK-OV-3 = system: SK-OV-3
SN12C = system: SN12C
786-0 = system: 786-0
IGROV-1 = system: IGROV-1
UO-31 = system: UO-31
A498 = system: A498
SF-268 = system: SF-268
NCI-H522 = system: NCI-H522
CAKI-1 = system: CAKI-1
HOP-62 = system: HOP-62
HCT-116 = system: HCT-116
SK-MEL-5 = system: SK-MEL-5
CCRF-CEM = system: CCRF-CEM
UACC-257 = system: UACC-257
MDA-MB-435 = system: MDA-MB-435
OVCAR-4 = system: OVCAR-4
HT-29 = system: HT-29
A549 = system: A549
NCI-H460 = system: NCI-H460
ACHN = system: ACHN
K562 = system: K562
EKVX = system: EKVX
SF-539 = system: SF-539
SK-MEL-2 = system: SK-MEL-2
Hs-578T = system: Hs-578T
Malme-3M = system: Malme-3M
RXF 393 = system: RXF 393
HCC 2998 = system: HCC 2998
HOP-92 = system: HOP-92

With `CCNCC(O)COc1ccc2c(c1)[n+]([O-])nc(N)[n+]2[O-]` (stereo unspecified) the GI50 (NCI/ADR-RES) was > 100 µM (inactive), the GI50 (LOX IMVI) was 14.3 µM (inactive) and the GI50 (SF-295) was 34.4 µM (inactive). The GI50 (U-251) was 42.7 µM (inactive), the GI50 (SK-MEL-28) was > 100 µM (inactive) and the GI50 (OVCAR-5) was > 100 µM (inactive). The GI50 (OVCAR-8) was 56 µM (inactive), the GI50 (HCT-15) was 63.7 µM and the GI50 (HL-60) was 43.1 µM (inactive). For the same compound, the GI50 (T47D) was 81.8 µM (inactive), the GI50 (DU-145) was 71.3 µM (inactive) and the GI50 (TK-10) was > 100 µM (inactive). For the same compound, the GI50 (NCI-H23) was 47.4 µM (inactive), the GI50 (MCF7) was 74 µM (inactive) and the GI50 (M14) was 40.7 µM (inactive). For the same compound, the GI50 (MDA-MB-231) was > 100 µM (inactive), the GI50 (SNB-75) was 29.4 µM (inactive) and the GI50 (OVCAR-3) was > 100 µM (inactive). The GI50 (SW-620) was 32.7 µM (inactive), the GI50 (SR) was 45.5 µM (inactive) and the GI50 (MDA-N) was > 100 µM (inactive). The GI50 (BT-549) was > 100 µM (inactive), the GI50 (PC-3) was 24.7 µM (inactive) and the GI50 (MOLT-4) was 14.5 µM (inactive). For the same compound, the GI50 (KM12) was 59.3 µM (inactive), the GI50 (COLO 205) was 68.9 µM (inactive) and the GI50 (SNB-19) was 61.2 µM (inactive). For the same compound, the GI50 (RPMI-8226) was 61.9 µM (inactive), the GI50 (NCI-H226) was 59.2 µM (inactive) and the GI50 (UACC-62) was 18 µM (inactive). The GI50 (SK-OV-3) was 10.6 µM (inactive), the GI50 (SN12C) was 45.4 µM (inactive) and the GI50 (786-0) was 51.6 µM (inactive). For the same compound, the GI50 (IGROV-1) was 36.3 µM (inactive), the GI50 (UO-31) was > 100 µM (inactive) and the GI50 (A498) was 27.8 µM (inactive). The GI50 (SF-268) was 31.3 µM (inactive), the GI50 (NCI-H522) was 12.6 µM (inactive) and the GI50 (CAKI-1) was 26.9 µM (inactive). The GI50 (HOP-62) was 23.5 µM (inactive), the GI50 (HCT-116) was 50.2 µM (inactive) and the GI50 (SK-MEL-5) was 24.8 µM (inactive). The GI50 (CCRF-CEM) was 19 µM (inactive), the GI50 (UACC-257) was > 100 µM (inactive) and the GI50 (MDA-MB-435) was > 100 µM (inactive). The GI50 (OVCAR-4) was 37.2 µM (inactive), the GI50 (HT-29) was 68.9 µM (inactive) and the GI50 (A549) was 24.2 µM (inactive). For the same compound, the GI50 (NCI-H460) was > 10 µM (inactive), the GI50 (ACHN) was 30.1 µM (inactive) and the GI50 (K562) was 35.2 µM (inactive). For the same compound, the GI50 (EKVX) was > 100 µM (inactive), the GI50 (SF-539) was 37.3 µM (inactive) and the GI50 (SK-MEL-2) was 39.6 µM (inactive). The GI50 (Hs-578T) was 54.6 µM (inactive).

For `COc1cnc2cc(C(=O)O)c3c([N+](=O)[O-])cccc3c2c1`, the GI50 (NCI/ADR-RES) was > 100 µM (inactive), the GI50 (LOX IMVI) was > 100 µM (inactive) and the GI50 (SF-295) was > 100 µM (inactive). The GI50 (Malme-3M) was > 100 µM (inactive), the GI50 (U-251) was > 100 µM (inactive) and the GI50 (SK-MEL-28) was > 100 µM (inactive). For the same compound, the GI50 (OVCAR-5) was > 100 µM (inactive), the GI50 (OVCAR-8) was > 100 µM (inactive) and the GI50 (HCT-15) was greater than 100 µM. The GI50 (HL-60) was > 100 µM (inactive), the GI50 (T47D) was > 100 µM (inactive) and the GI50 (DU-145) was > 100 µM (inactive). The GI50 (TK-10) was > 100 µM (inactive), the GI50 (NCI-H23) was > 100 µM (inactive) and the GI50 (MCF7) was > 100 µM (inactive). The GI50 (M14) was > 100 µM (inactive), the GI50 (MDA-MB-231) was > 100 µM (inactive) and the GI50 (SNB-75) was > 100 µM (inactive). For the same compound, the GI50 (OVCAR-3) was > 100 µM (inactive), the GI50 (SW-620) was > 100 µM (inactive) and the GI50 (SR) was > 100 µM (inactive). For the same compound, the GI50 (MDA-N) was > 100 µM (inactive), the GI50 (BT-549) was > 100 µM (inactive) and the GI50 (PC-3) was > 100 µM (inactive). For the same compound, the GI50 (MOLT-4) was > 100 µM (inactive), the GI50 (KM12) was > 100 µM (inactive) and the GI50 (COLO 205) was > 100 µM (inactive). The GI50 (SNB-19) was > 100 µM (inactive), the GI50 (RPMI-8226) was > 100 µM (inactive) and the GI50 (NCI-H226) was > 100 µM (inactive). The GI50 (UACC-62) was > 100 µM (inactive), the GI50 (RXF 393) was > 100 µM (inactive) and the GI50 (SK-OV-3) was > 100 µM (inactive). For the same compound, the GI50 (SN12C) was > 100 µM (inactive), the GI50 (786-0) was > 100 µM (inactive) and the GI50 (IGROV-1) was > 100 µM (inactive). For the same compound, the GI50 (UO-31) was > 100 µM (inactive), the GI50 (SF-268) was > 100 µM (inactive) and the GI50 (NCI-H522) was > 100 µM (inactive). The GI50 (HCC 2998) was > 100 µM (inactive), the GI50 (CAKI-1) was > 100 µM (inactive) and the GI50 (HOP-62) was > 100 µM (inactive). The GI50 (HCT-116) was > 100 µM (inactive), the GI50 (SK-MEL-5) was > 100 µM (inactive) and the GI50 (HOP-92) was > 100 µM (inactive). For the same compound, the GI50 (CCRF-CEM) was > 100 µM (inactive), the GI50 (UACC-257) was > 100 µM (inactive) and the GI50 (MDA-MB-435) was > 100 µM (inactive). The GI50 (OVCAR-4) was > 100 µM (inactive), the GI50 (HT-29) was > 100 µM (inactive) and the GI50 (A549) was > 100 µM (inactive). The GI50 (NCI-H460) was > 100 µM (inactive), the GI50 (ACHN) was > 100 µM (inactive) and the GI50 (K562) was > 100 µM (inactive). The GI50 (EKVX) was > 100 µM (inactive), the GI50 (SK-MEL-2) was > 100 µM (inactive) and the GI50 (Hs-578T) was > 100 µM (inactive).

`Oc1[nH]c(Nc2cccc(Br)c2)nc2ncnc1-2` was tested, and the GI50 (NCI/ADR-RES) was > 100 µM (inactive), the GI50 (LOX IMVI) was > 100 µM (inactive) and the GI50 (SF-295) was > 100 µM (inactive). For the same compound, the GI50 (Malme-3M) was > 100 µM (inactive), the GI50 (SK-MEL-28) was > 100 µM (inactive) and the GI50 (OVCAR-5) was > 100 µM (inactive). The GI50 (OVCAR-8) was > 100 µM (inactive), the GI50 (HCT-15) was greater than 100 µM and the GI50 (HL-60) was 11.6 µM (inactive). For the same compound, the GI50 (T47D) was 98.4 µM (inactive), the GI50 (DU-145) was 73.3 µM (inactive) and the GI50 (TK-10) was 87.1 µM (inactive). The GI50 (NCI-H23) was > 100 µM (inactive), the GI50 (MCF7) was > 100 µM (inactive) and the GI50 (M14) was > 100 µM (inactive). The GI50 (MDA-MB-231) was 55.6 µM (inactive), the GI50 (SNB-75) was 57.7 µM (inactive) and the GI50 (OVCAR-3) was 89.5 µM (inactive). The GI50 (SW-620) was > 100 µM (inactive), the GI50 (SR) was 76.4 µM (inactive) and the GI50 (MDA-N) was > 100 µM (inactive). For the same compound, the GI50 (BT-549) was 82.8 µM (inactive), the GI50 (PC-3) was 98.2 µM (inactive) and the GI50 (MOLT-4) was > 100 µM (inactive). The GI50 (KM12) was > 100 µM (inactive), the GI50 (COLO 205) was > 100 µM (inactive) and the GI50 (SNB-19) was 71.8 µM (inactive). The GI50 (RPMI-8226) was > 100 µM (inactive), the GI50 (NCI-H226) was > 100 µM (inactive) and the GI50 (UACC-62) was > 100 µM (inactive). The GI50 (RXF 393) was > 100 µM (inactive), the GI50 (SK-OV-3) was > 100 µM (inactive) and the GI50 (786-0) was > 100 µM (inactive). The GI50 (IGROV-1) was > 100 µM (inactive), the GI50 (UO-31) was > 100 µM (inactive) and the GI50 (SF-268) was 56.4 µM (inactive). The GI50 (NCI-H522) was > 100 µM (inactive), the GI50 (HCC 2998) was > 100 µM (inactive) and the GI50 (CAKI-1) was > 100 µM (inactive). The GI50 (HCT-116) was 53.8 µM (inactive), the GI50 (SK-MEL-5) was > 100 µM (inactive) and the GI50 (HOP-92) was 52 µM (inactive). For the same compound, the GI50 (CCRF-CEM) was 54.7 µM (inactive), the GI50 (UACC-257) was > 100 µM (inactive) and the GI50 (MDA-MB-435) was 93.5 µM (inactive). The GI50 (OVCAR-4) was 15.5 µM (inactive), the GI50 (HT-29) was 82.6 µM (inactive) and the GI50 (A549) was > 100 µM (inactive). The GI50 (NCI-H460) was > 100 µM (inactive), the GI50 (ACHN) was > 100 µM (inactive) and the GI50 (K562) was 26.5 µM (inactive). The GI50 (EKVX) was > 100 µM (inactive), the GI50 (SK-MEL-2) was 23.6 µM (inactive) and the GI50 (Hs-578T) was 55.3 µM (inactive).
